Test: clinical
Settings: male, human, in vivo
Experimental: This was an open-label, randomized, two-treatment, two-period, two-sequence, crossover study under fasted conditions comparing the test and reference products. The study was conducted with 16 healthy, non-tobacco-, non-nicotine-using, adult male subjects. In one period of the study, one (1) TBZ patch, 8 mg/96 hr was applied to the subject's upper outer left arm and kept in place for 96 hours following an overnight fast of at least 10 hours. In the other study period, 1×12.5 mg Tetrabenazine Tablet (Lupin) was administered every 8 hours from Day 1 through Day 4 for a total daily dose of 37.5 mg and a total dose of 150 mg for the 12 doses over the 4 days. […]
Blood samples were collected pre-dose and at intervals over 120 hours after dosing (0-hour) with the study drug in each study period. Samples were analyzed by the bioanalytical laboratory for those subjects who were dosed with at least one of the study products (Treatment A or B).
The plasma concentrations of TBZ (RR and SS isomers) and its active metabolites (RRR, SSS, SRR and RSS) were measured by a fully validated analytical procedure. […]
The plasma concentrations of TBZ (RR and SS isomers) and its HTBZ metabolites (RRR, SSS, SRR and RSS) were measured by a fully validated analytical procedure for those subjects who were dosed with at least one of the study products (Treatment A or B).

## COc1cc2c(cc1OC)[C@H]1CC(=O)[C@H](CC(C)C)CN1CC2 [R,R-tetrabenazine, (3R,11bR)-1,3,4,6,7,11b-Hexahydro-9,10-dimethoxy-3-(2-methylpropyl)-2H-benzo[a]quinolizin-2-one]
  half-life: ~8.5 h
